Legend:
hGPR 3 = hGPR 3 (Homo sapiens, UniProt P46089); experiment: Ca2+ FLIPR assay in HEK293 cells transiently transfected with hGPR 3; type: cell-based
Experimental: (§1) Transient transfections were carried out by incubating 5×10^5 HEK293 cells or 2×10^5 CHO-K1 cells in 6-well plates at 37° C. for 24 hours. The cells were then transfected with 1 to 2 μg of a vector, pcDNA 3.1, into which a GPR 3 gene was inserted by Hind III and Xba I sites, under the control of pcDNA 3.1. It is also expected that GPR 3, 6, or 12 may be cloned under control of the eukaryotic CMV promoter or of a control plasmid without corresponding cloned insert. The HEK293 cells were transfected with the aid of FuGene 6 transfection reagent (commercially available, for example from Roche Diagnostics) and the CHO cells were transfected with the aid of Lipofectamine reagent (commercially available, for example from GIBCO-BRL), in each case according to the manufacturer's instructions.
(§2) HEK293 cells were transferred to 96-well microtiter plates 24 hours after transient transfection. The cell density was 80,000 cells per well. The microtiter plates were coated with poly-D-lysine. […] The compounds to be analyzed, i.e., S1P, DHS1P, suramin, and compounds from the lipid library, were present as 2 mM stock solutions in DMSO (dimethyl sulfoxide). […]
(§3) The FLIPR was programmed such that 50 μl of the triple-concentrated suramin stock solution were added to the cells, leading to a final suramin concentration of 300 μM. Fluorescence was measured in 3 second intervals for the first 3 minutes and in 10 second intervals for the last 2 minutes. Ca^2+ signals of ligands were determined similarly.
(§4) The fluorescence data of the 18 to 36 second time interval were used to determine agonist activity.
(§5) Regarding the FLIPR assay, HEK293 cells were transferred to 96-well microtiter plates 24 hours after transient transfection. […] Compounds to be analyzed, e.g., S1P and DHS1 P, were added at this stage. Fluorescence was measured by means of a fluorometric imaging plate reader in 3 second intervals for the first 3 minutes and in 10 second intervals for the last 2 minutes. The fluorescence data of the 18 to 36 second time interval were used to determine agonist activity. […]

hGPR 6 = hGPR 6 (Homo sapiens, UniProt P46095); experiment: Ca2+ FLIPR assay in HEK293 cells transiently transfected with hGPR 6; type: cell-based
Experimental: as §1, §2, §3, §4, §5

hGPR 12 = target: T1, hGPR 12 (Homo sapiens, UniProt P47775); experiment: Ca2+ FLIPR assay in HEK293 cells transiently transfected with hGPR 12; type: cell-based
T1 sequence (P47775 1-334): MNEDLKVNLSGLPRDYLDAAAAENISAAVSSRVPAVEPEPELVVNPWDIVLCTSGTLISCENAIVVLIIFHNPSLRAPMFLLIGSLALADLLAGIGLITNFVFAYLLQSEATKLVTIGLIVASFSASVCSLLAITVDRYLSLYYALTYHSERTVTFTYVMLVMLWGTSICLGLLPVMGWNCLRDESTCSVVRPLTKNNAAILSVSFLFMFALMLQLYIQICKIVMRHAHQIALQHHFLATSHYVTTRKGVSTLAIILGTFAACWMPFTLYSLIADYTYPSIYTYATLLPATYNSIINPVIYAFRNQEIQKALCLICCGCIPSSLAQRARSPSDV
Experimental: as §1, §2, §3, §4, §5

HEK293 cells = experiment: Ca2+ release in HEK293 cells; type: cell-based, human; conditions: for sensitivity of induced Ca2+ release to pertussis toxin: signal runs via Gαi-type G proteins
Experimental: HEK293 cells were transferred to 96-well microtiter plates 24 hours after transient transfection. The cell density was 80,000 cells per well. The microtiter plates were coated with poly-D-lysine. The cells were kept in medium containing 1% (v/v) FCS (fetal calf serum) for 18 to 24 hours. After trypsinization, the cells were suspended in DMEM (Dulbecco's modified Eagle's medium) that also contained 25 mM HEPES (N-2-hydroxyethylpiperazine-N′-2-ethanesulfonic acid) pH 7.0, 1% (v/v) FCS, […] and 4 μM dye Fluo4 (fluorescent calcium indicator from Molecular Dynamics), and then incubated at 37° C. with 5% (v/v) CO2 for 1 hour. The cells were then washed 3 times with PBS (phosphate-buffered saline) containing 1 mM MgCl2, 1 mM EDTA and 0.4 mg/ml FAF-BSA (fatty acid-free bovine serum albumin). After the last washing step, the volume was 100 ,μl per […]. The compounds to be analyzed, i.e., S1P, DHS1P, suramin, and compounds from the lipid library, were present as 2 mM stock solutions in DMSO (dimethyl sulfoxide). These stock solutions were diluted 1:500 with the PBS solution containing 1 mM MgCl2, 1 mM EDTA and 0.4 mg/ml FAF-BSA. Lipids were present in the form of triple-concentrated 900 μM solutions prior to the assay. Suramin (Sigma) was prepared in the form of a triple-concentrated 900 μM solution in PBS containing 1 mM MgCl2, 1 EDTA, and 0.4 mg/ml FAF-BSA.
as §3, §4
Regarding the FLIPR assay, HEK293 cells were transferred to 96-well microtiter plates 24 hours after transient transfection. The cell density was 80,000 cells per well. The microtiter plates were coated with poly-D-lysine. The cells were kept in medium containing 1% (v/v) FCS (fetal calf serum) for 18 to 24 hours. […] Compounds to be analyzed, e.g., S1P and DHS1 P, were added at this stage. Fluorescence was measured by means of a fluorometric imaging plate reader in 3 second intervals for the first 3 minutes and in 10 second intervals for the last 2 minutes. The fluorescence data of the 18 to 36 second time interval were used to determine agonist activity. The reader itself equalizes internally the zero values.

Chain of hGPR 6 (P46095 whole entry): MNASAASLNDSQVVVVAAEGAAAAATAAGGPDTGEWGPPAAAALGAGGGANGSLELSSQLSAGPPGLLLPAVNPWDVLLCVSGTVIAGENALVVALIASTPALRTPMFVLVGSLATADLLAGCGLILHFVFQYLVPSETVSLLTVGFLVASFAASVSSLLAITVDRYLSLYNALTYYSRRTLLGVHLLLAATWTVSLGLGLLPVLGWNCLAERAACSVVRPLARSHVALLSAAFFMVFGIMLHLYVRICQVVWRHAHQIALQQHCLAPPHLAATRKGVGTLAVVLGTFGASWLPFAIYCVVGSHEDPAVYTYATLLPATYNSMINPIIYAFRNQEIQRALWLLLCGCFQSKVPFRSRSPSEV
Chain of hGPR 3 (P46089 whole entry): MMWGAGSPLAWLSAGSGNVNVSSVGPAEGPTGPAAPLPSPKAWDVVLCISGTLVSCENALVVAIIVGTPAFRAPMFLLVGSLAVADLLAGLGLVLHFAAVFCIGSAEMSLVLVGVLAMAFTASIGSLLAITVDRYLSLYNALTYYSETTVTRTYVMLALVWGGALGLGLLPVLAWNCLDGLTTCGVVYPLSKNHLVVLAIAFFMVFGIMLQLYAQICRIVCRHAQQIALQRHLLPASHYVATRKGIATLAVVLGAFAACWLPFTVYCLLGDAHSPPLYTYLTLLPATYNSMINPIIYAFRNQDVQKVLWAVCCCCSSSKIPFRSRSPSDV

`CCCCCCCCCCCCCCC[C@@H](O)[C@@H](N)COP(=O)(O)O` [DHS1P, dihydrosphingosine 1-phosphate] was tested. Which “identification as ligand (agonist activity, Ca2+ signal)” value (“identification as ligand” below) (hGPR 3) did it give?
Its value is “physiological ligands”.

What about the “identification as ligand” value (hGPR 6) of the same molecule?
The value was “physiological ligands”.

What about the “identification as ligand” value (hGPR 12) of the same molecule?
Its value is “physiological ligands”.

And the “Ca2+ release” value (HEK293 cells)?
The value was “cause Ca^2+release”.

And the “sensitivity of induced Ca2+ release to pertussis toxin” value (HEK293 cells)?
Its value is “pertussis toxin-sensitive”.

For `CCCCCCCCCCCCC/C=C/[C@@H](O)[C@@H](N)COP(=O)(O)O` [S1P, sphingosine 1-phosphate], which “identification as ligand” value (hGPR 3) is on record?
Its value is “physiological ligands”.

What about the EC50 (hGPR 3; Ca2+ FLIPR) of the same molecule?
Its EC50 is < 100 nM.

What about the “identification as ligand” value (hGPR 6) of the same molecule?
Its value is “physiological ligands”.

And the EC50 (hGPR 6; Ca2+ FLIPR)?
The EC50 was < 100 nM.

And the “identification as ligand” value (hGPR 12)?
The value was “physiological ligands”.

And the EC50 (hGPR 12; Ca2+ FLIPR)?
Its EC50 is < 100 nM.

What about the “Ca2+ release” value (HEK293 cells) of the same molecule?
Its value is “cause Ca^2+release”.

What about the “sensitivity of induced Ca2+ release to pertussis toxin” value (HEK293 cells) of the same molecule?
The value was “pertussis toxin-sensitive”.

Reference: patent US20020182655A1, “Method for identifying ligands for G protein-coupled receptors” (priority 2001, published 2002)
